Here are results for one molecule from ChEMBL document CHEMBL4411321, “Discovery of Potent, Selective, and Orally Bioavailable Estrogen-Related Receptor-γ Inverse Agonists To Restore the Sodium Iodide Symporter Function in Anaplastic Thyroid Cancer” (J Med Chem, 2019).

A short description of data set [1]: in vivo. The conditions noted are these: Sprague-Dawley, rat, iv, 1 mg/kg.
Data set [2] in a line: Metabolic stability in mouse liver microsomes assessed as compound remaining at 1 uM after 30 mins in presence of NADPH regeneration system by LC-MS/MS analysis. The conditions noted are these: read-out: Stability. The format is ADME, Microsome. A general note: Liver microsomes are vesicles of endoplasmic reticulum, rich in cytochrome P450 enzymes.
Data set [3] in a line: in vivo. The conditions noted are these: Sprague-Dawley, rat, iv, 1 mg/kg. This is another data set of the same source.
Description: Volume of distribution at steady state in Sprague-Dawley rat at 1 mg/kg, iv by LC-MS/MS analysis
Data set [4] is described as follows: Metabolic stability in rat liver microsomes assessed as compound remaining at 1 uM after 30 mins in presence of NADPH regeneration system by LC-MS/MS analysis. The conditions noted are these: read-out: Stability. The format is ADME, Microsome.
The nature of data set [5]: AUC in Sprague-Dawley rat at 9 to 10 mg/kg, po via gavage by LC-MS/MS analysis. Type of data set: ADME, organism-based. Conditions: in vivo.
A further data set deals with CYP2C9 (Homo sapiens, UniProt P11712). Put plainly: Inhibition of CYP2C9 in human liver microsomes assessed as reduction in tolbutamide 4-hydroxylase activity at 10 uM preincubated for 5 mins followed by NADPH addition and measured after 15 mins by LC-MS/MS analysis relative to control. Type of data set: ADME. The conditions noted are these: probe tolbutamide (4-hydroxylation).
CYP2C9, sequence (P11712 whole entry): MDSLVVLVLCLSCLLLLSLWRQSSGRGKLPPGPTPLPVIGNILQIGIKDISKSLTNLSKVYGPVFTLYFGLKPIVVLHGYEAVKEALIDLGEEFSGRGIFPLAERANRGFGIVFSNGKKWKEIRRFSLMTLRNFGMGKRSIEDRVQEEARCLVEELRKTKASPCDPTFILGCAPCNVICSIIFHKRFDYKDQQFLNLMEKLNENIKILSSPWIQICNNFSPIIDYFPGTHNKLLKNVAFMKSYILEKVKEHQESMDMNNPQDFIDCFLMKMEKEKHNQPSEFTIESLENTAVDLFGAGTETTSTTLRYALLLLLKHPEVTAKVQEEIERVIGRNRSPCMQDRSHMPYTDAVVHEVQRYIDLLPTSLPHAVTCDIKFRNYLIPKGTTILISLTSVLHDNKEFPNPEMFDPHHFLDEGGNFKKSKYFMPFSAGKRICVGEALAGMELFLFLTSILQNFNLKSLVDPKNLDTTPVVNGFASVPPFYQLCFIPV

Another data set concerns the target CYP3A4 (Homo sapiens, UniProt P08684). Put plainly: Inhibition of CYP3A4 in human liver microsomes assessed as reduction in midazolam 1-hydroxylase activity at 10 uM preincubated for 5 mins followed by NADPH addition and measured after 15 mins by LC-MS/MS analysis relative to control. Conditions: probe midazolam (1-hydroxylation). Type of data set: ADME.
Data set [6] concerns the target T1, Estrogen-related receptor gamma (Homo sapiens, UniProt P62508).
T1 sequence (P62508 whole entry): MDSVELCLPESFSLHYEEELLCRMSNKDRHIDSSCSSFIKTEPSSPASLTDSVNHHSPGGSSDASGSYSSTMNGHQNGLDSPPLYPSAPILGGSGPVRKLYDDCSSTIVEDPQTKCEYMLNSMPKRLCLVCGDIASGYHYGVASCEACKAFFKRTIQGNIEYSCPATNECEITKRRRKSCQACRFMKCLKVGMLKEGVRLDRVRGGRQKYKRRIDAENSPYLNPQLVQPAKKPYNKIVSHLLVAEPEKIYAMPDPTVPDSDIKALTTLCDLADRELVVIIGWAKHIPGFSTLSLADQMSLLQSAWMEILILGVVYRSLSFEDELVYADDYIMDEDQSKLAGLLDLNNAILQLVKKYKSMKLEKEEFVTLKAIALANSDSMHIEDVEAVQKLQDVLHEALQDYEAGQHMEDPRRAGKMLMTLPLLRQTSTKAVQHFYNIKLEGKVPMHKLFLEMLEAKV
Description: Inverse agonist activity at CMX-gal4-fused ERRgamma (unknown origin) transfected in human AD293 cells co-expressing CMV-beta galactosidase assessed as effect on beta-galactosidase activity after 24 hrs by luciferase reporter gene assay

Data set [7] has as its target T2, Steroid hormone receptor ERR1 (Homo sapiens, UniProt P11474).
T2 sequence (P11474 whole entry): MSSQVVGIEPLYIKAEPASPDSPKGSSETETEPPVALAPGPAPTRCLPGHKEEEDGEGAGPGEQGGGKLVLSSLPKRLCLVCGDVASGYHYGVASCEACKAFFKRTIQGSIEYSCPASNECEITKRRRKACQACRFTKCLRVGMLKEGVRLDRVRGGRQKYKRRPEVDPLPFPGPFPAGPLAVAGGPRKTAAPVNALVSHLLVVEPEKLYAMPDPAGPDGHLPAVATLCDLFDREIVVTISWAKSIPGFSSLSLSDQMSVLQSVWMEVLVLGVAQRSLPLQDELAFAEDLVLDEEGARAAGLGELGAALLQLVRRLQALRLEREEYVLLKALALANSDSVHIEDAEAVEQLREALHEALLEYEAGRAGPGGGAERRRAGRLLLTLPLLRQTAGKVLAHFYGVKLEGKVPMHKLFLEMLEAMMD

Data set [8] can be described thus: Effective permeability of the compound at 10 uM after 5 hrs by PAMPA. The format is ADME. The conditions noted are these: read-out: Peff.
In a further data set the target is T3, Estrogen receptor (Homo sapiens, UniProt P03372).
T3 sequence (P03372 whole entry): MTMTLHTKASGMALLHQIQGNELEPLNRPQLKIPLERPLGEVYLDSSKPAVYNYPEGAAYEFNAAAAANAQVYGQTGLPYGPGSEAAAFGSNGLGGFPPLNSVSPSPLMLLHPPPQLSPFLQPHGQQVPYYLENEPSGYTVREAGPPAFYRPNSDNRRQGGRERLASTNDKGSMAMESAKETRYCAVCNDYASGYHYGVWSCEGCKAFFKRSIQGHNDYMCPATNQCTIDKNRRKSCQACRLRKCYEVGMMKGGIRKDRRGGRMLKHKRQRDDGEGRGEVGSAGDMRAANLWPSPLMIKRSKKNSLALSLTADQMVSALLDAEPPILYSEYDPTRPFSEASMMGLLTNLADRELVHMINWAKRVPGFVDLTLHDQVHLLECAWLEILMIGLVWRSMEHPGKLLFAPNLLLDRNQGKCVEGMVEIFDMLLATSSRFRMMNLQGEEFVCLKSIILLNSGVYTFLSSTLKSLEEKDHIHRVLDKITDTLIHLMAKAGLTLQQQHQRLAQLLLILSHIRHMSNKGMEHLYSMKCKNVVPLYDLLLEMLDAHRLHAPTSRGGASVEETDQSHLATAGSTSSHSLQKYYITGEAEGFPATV

A short description of data set [9]: Tmax in Sprague-Dawley rat at 9 to 10 mg/kg, po via gavage by LC-MS/MS analysis. Type of data set: ADME, organism-based. The conditions noted are these: in vivo.
Data set [10] in a line: in vivo. The conditions noted are these: Sprague-Dawley, rat, plasma, iv, 1 mg/kg.
Data set [11] in a line: Cmax in Sprague-Dawley rat at 9 to 10 mg/kg, po via gavage by LC-MS/MS analysis. The format is ADME, organism-based. The conditions noted are these: in vivo.
A short description of data set [12]: Metabolic stability in dog liver microsomes assessed as compound remaining at 1 uM after 30 mins in presence of NADPH regeneration system by LC-MS/MS analysis. The format is ADME, Canis lupus familiaris, Microsome. Conditions: read-out: Stability.
Data set [13] can be described thus: Oral bioavailability in Sprague-Dawley rat at 9 to 10 mg/kg via gavage by LC-MS/MS analysis. The format is ADME, organism-based. Conditions: in vivo.
The target of the next data set is CYP2C19 (Homo sapiens, UniProt P33261). Put plainly: Inhibition of CYP2C19 in human liver microsomes assessed as reduction in S-mephenytoin 4-hydroxylase activity at 10 uM preincubated for 5 mins followed by NADPH addition and measured after 15 mins by LC-MS/MS analysis relative to control. Type of data set: ADME. Conditions: probe S-mephenytoin (4-hydroxylation).
CYP2C19, sequence (P33261 whole entry): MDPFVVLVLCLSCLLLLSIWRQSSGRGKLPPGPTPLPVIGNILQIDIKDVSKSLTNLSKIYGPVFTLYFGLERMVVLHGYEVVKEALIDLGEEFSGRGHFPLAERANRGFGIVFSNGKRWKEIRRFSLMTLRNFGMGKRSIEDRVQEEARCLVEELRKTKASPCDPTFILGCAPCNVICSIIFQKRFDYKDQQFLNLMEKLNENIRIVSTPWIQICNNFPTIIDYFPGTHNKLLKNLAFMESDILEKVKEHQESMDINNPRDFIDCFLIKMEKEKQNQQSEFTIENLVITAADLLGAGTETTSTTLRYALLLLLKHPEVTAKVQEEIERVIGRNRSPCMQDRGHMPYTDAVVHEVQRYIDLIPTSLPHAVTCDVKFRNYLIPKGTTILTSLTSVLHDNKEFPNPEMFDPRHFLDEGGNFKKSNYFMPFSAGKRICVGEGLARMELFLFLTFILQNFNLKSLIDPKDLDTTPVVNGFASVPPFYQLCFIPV

Data set [14] is described as follows: Terminal half life in Sprague-Dawley rat at 1 mg/kg, iv by LC-MS/MS analysis. Conditions: in vivo, read-out: beta t1/2 (converted). The format is ADME, organism-based.
Another data set deals with T4, CYP1A2 (Homo sapiens, UniProt P05177).
T4 sequence (P05177 whole entry): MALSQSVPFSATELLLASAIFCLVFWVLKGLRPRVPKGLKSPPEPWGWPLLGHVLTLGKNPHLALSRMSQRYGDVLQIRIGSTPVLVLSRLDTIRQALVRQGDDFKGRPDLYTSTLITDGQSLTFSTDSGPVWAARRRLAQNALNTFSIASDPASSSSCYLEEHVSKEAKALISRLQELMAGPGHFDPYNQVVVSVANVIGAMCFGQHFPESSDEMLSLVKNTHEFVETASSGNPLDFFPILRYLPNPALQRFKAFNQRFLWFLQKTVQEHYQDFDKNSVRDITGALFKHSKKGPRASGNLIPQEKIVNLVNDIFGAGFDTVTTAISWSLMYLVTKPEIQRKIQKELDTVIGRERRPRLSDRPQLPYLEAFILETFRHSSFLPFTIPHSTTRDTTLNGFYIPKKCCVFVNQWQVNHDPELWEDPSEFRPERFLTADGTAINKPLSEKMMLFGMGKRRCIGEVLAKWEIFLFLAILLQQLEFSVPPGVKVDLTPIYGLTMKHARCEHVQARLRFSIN
Put plainly: Inhibition of CYP1A2 in human liver microsomes assessed as reduction in phenacetin O-deethylase activity at 10 uM preincubated for 5 mins followed by NADPH addition and measured after 15 mins by LC-MS/MS analysis relative to control. Type of data set: ADME. The conditions noted are these: probe phenacetin (O-deethylation).

Data set [15] can be described thus: Metabolic stability in human liver microsomes assessed as compound remaining at 1 uM after 30 mins in presence of NADPH regeneration system by LC-MS/MS analysis. Type of data set: ADME, Microsome. The conditions noted are these: read-out: Stability.
Data set [16] has as its target T1, Estrogen-related receptor gamma. The source holds these as a separate data set.
A further data set concerns the target CYP2D6 (Homo sapiens, UniProt P10635). Put plainly: Inhibition of CYP2D6 in human liver microsomes assessed as reduction in dextromethorphan O-demethylase activity at 10 uM preincubated for 5 mins followed by NADPH addition and measured after 15 mins by LC-MS/MS analysis relative to control. Type of data set: ADME. The conditions noted are these: probe dextromethorphan (O-demethylation).

Data set [17] in a line: AUC (0 to infinity) in Sprague-Dawley rat at 9 to 10 mg/kg, po via gavage by LC-MS/MS analysis. The format is ADME, organism-based. The conditions noted are these: in vivo.
The nature of data set [18]: AUC (0 to infinity) in Sprague-Dawley rat at 1 mg/kg, iv by LC-MS/MS analysis. The format is ADME, organism-based. On the set-up: dose 1 mg/kg, time infinity, route intravenous. Conditions: in vivo.

CYP2D6, sequence (P10635 whole entry): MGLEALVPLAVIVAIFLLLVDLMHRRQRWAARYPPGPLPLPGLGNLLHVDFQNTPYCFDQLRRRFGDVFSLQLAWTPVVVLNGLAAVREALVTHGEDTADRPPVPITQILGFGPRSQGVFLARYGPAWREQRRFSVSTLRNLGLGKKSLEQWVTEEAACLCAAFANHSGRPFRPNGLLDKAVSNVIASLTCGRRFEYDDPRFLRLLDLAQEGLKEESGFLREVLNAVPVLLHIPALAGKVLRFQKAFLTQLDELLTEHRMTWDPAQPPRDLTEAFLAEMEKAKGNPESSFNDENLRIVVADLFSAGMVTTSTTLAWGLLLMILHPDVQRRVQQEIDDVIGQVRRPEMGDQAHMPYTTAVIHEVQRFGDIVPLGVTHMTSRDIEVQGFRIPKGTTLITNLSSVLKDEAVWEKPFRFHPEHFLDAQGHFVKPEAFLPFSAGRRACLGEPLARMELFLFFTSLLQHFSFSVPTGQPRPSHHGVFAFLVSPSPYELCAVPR
CYP3A4, sequence (P08684 whole entry): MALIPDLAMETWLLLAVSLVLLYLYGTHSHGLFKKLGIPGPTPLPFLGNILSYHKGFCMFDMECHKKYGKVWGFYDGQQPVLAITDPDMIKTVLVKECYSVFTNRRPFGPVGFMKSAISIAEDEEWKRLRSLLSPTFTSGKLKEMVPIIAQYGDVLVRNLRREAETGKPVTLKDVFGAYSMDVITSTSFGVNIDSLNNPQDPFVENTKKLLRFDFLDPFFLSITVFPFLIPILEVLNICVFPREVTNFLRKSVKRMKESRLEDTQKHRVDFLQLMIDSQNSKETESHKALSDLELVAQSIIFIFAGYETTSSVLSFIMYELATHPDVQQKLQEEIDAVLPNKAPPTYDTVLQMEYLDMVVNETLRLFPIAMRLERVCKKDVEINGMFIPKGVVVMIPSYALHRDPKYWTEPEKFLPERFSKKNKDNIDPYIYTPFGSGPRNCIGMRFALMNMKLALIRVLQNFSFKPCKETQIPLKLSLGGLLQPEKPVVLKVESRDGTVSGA

`CCN1CCN(c2ccc(/C(=C(/CCCO)c3ccccc3)c3ccc(C)cc3)cc2)CC1.Cl.Cl`: the results for the AUC (in the data set “in vivo [1]”; in [5]) were 0.55 µM·h and 1.07 µM·h, respectively. The remaining at 0.5 h, 1 µM stood at 54.9% in [2], 62.8% in data set [4], 58% in data set [12] and 67.9% in [15]. In the data set “in vivo [3]”, the Vd (usually a proportionality between amount in the body and measured concentration, not a real space) was 9.8 L/kg. The inhibition (usually the change of the read-out against control, counted positive when it falls) at 0.25 h, 10 µM was found to be 13% at CYP2C9; 22.4% on CYP3A4; 26% on CYP2C19; 0% on CYP1A2; 13.4% on CYP2D6. The IC50 (commonly the concentration that gives 50% inhibition) is 18 nM in [6], over 10000 nM in data set [7], over 10000 nM at Estrogen receptor and 25 nM in [16]. The Papp at 5 h, 10 µM in data set [8] stood at 4.47 ×10⁻⁶ cm/s. Also, the Tmax (usually the time from dosing to the highest level) in [9] worked out at 3 h. The clearance (usually the volume of plasma or blood freed of the substance per unit of time) in “in vivo [10]” was 59 mL/min/kg. Besides, the highest level in data set [11] (Cmax) was 210 nM. Moreover, the bioavailability (commonly the share of a dose that reaches the circulation, judged against a reference dose that is usually intravenous) in data set [13] came out at 19.6%. The half-life in [14] was 3.2 h. Besides, the area under the curve AUC(0-inf) (commonly the area under the concentration-time curve extrapolated to infinity) was 1.61 µM·h in data set [17] and 0.6 µM·h in data set [18].
